{"source": "paper PMC8296985", "about": "“A Covalent Calmodulin Inhibitor as a Tool to Study Cellular Mechanisms of K-Ras-Driven Stemness” (Frontiers in Cell and Developmental Biology, 2021)", "origin": "cited, not measured here", "system": "Ca^2+/CaM-dependent cyclic nucleotide phosphodiesterase", "design": "method as in Itoh and Hidaka, 1984; Zimmer and Hofmann, 1984", "details": "ref Itoh and Hidaka, 1984, Zimmer and Hofmann; cited from earlier work"}
{"compound": "NCCCCCCNS(=O)(=O)c1cccc2c(Cl)cccc12", "note": "[Compound W-7]", "values": [{"measurement": "concentration inhibiting CaM targets", "value": "> 100", "unit": "µM"}]}
